The text below walks through data of US11510920B2, “Compositions and methods for treating EZH2-mediated cancer” (Icahn School of Medicine at Mount Sinai, priority 2016, dated 2022).

Each structure is given as a SMILES string.

Common to all, as to format: cell-based
For experiment [1], the system named is MCF-7 cells. Briefly: Proliferation assay (IncuCyte cell confluence), MCF-7. Conditions: Homo sapiens, MCF7, concentration for 50% of maximal inhibition of cell proliferation. How it is done:
(§1) 1-3×10^3 cells were seeded in 96-well plates in duplicates and treated at the indicated compound concentrations. Cells were monitored using the IncuCyte® live cell imaging system (Essen BioScience™, Ann Arbor, Mich.) which was placed in a cell culture incubator operated at 37° C. and 5% CO2. Cell confluence was determined using calculations derived from phase-contrast images. The concentration for 50% of maximal inhibition of cell proliferation (GI50) values were determined by fitting to a standard four-parameter logistic using GraphPad Prism® v5. Graphs depicting the GI50s of select EZH2 degraders/disruptors described here for various cancer cell lines are shown in FIGS. 4-49.

Experiment [2] relates to MDA-MB-468 cells. Briefly: Proliferation assay (IncuCyte cell confluence), MDA-MB-468. Particulars: Homo sapiens, concentration for 50% of maximal inhibition of cell proliferation. How it is done: as §1
Experiment [3] relates to HCC1187 cells. Briefly: Proliferation assay (IncuCyte cell confluence), HCC1187. Particulars: Homo sapiens, concentration for 50% of maximal inhibition of cell proliferation. On the procedure: as §1
The subject of experiment [4] is HCC1170 cells. The experiment can be described thus: Proliferation assay (IncuCyte cell confluence), HCC1170. Particulars: concentration for 50% of maximal inhibition of cell proliferation. How it is done: as §1
For experiment [5], the system named is BT549 cells. Briefly: Proliferation assay (IncuCyte cell confluence), BT549. Conditions: Homo sapiens, BT-549, concentration for 50% of maximal inhibition of cell proliferation. On the procedure:
as §1

In experiment [6] the test system is HCC1954 cells. Briefly: Proliferation assay (IncuCyte cell confluence), HCC1954. Conditions: Homo sapiens, concentration for 50% of maximal inhibition of cell proliferation. How it is done:
as §1

Regarding `CCCc1cc(C)[nH]c(=O)c1CNC(=O)c1cc(-c2ccc(N3CCN(CCNC(=O)CC45CC6CC(CC(C6)C4)C5)CC3)nc2)cc2c1cnn2C(C)C` [AM16-10A, 6-(6-(4-(2-(2-((3r,5r,7r)-adamantan-1-yl)acetamido)ethyl)piperazin-1-yl)pyridin-3-yl)-1-isopropyl-N-((6-methyl-2-oxo-4-propyl-1,2-dihydropyridin-3-yl)methyl)-1H-indazole-4-carboxamide], the GI50 – broadly, the concentration giving 50% growth inhibition – in experiment [1] came to 1.2 µM; in experiment [2], 1.4 µM; in experiment [3] it was 0.57 µM; in experiment [4], 1.2 µM.

With `Cc1cc(C)c(CNC(=O)c2cc(-c3ccc(N4CCN(C(=O)CC56CC7CC(CC(C7)C5)C6)CC4)nc3)cc3c2cnn3C(C)C)c(=O)[nH]1` [AM16-92A, 6-(6-(4-(2-((1s,3s)-adamantan-1-yl)acetyl)piperazin-1-yl)pyridin-3-yl)-N-((4,6-dimethyl-2-oxo-1,2-dihydropyridin-3-yl)methyl)-1-isopropyl-1H-indazole-4-carboxamide], the GI50 in experiment [1] was found to be 1 µM; in experiment [3], 1.1 µM.

Take `Cc1cc(C)c(CNC(=O)c2cc(-c3ccc(N4CCN(CCNC(=O)C56CC7CC(CC(C7)C5)C6)CC4)nc3)cc3c2cnn3C(C)C)c(=O)[nH]1` [AM16-101A, 6-(6-(4-(2-((1s,3s)-adamantane-1-carboxamido)ethyl)piperazin-1-yl)pyridin-3-yl)-N-((4,6-dimethyl-2-oxo-1,2-dihydropyridin-3-yl)methyl)-1-isopropyl-1H-indazole-4-carboxamide]: the GI50 in experiment [1] was 0.69 µM; in experiment [2], 1.1 µM.

As for `Cc1cc(C)c(CNC(=O)c2cc(-c3ccc(N4CCN(CCNCCC56CC7CC(CC(C7)C5)C6)CC4)nc3)cc3c2cnn3C(C)C)c(=O)[nH]1` [AM16-103A, 6-(6-(4-(2-((2-((3r,5r,7r)-adamantan-1-yl)ethyl)amino)ethyl)piperazin-1-yl)pyridin-3-yl)-N-((4,6-dimethyl-2-oxo-1,2-dihydropyridin-3-yl)methyl)-1-isopropyl-1H-indazole-4-carboxamide], the 50% growth inhibitory concentration (GI50) in experiment [2] turned out to be 1.2 µM; in experiment [5] it was 1.4 µM; in experiment [6], 2.1 µM.

As to `Cc1cc(C)c(CNC(=O)c2cc(-c3ccc(N4CCN(CCNC(=O)[C@H](C)CCC56CC7CC(CC(C7)C5)C6)CC4)nc3)cc3c2cnn3C(C)C)c(=O)[nH]1` [AM16-105A, 6-(6-(4-(2-((2R)-4-((1r,3S)-adamantan-1-yl)-2-methyl-butanamido)ethyl)piperazin-1-yl)pyridin-3-yl)-N-((4,6-dimethyl-2-oxo-1,2-dihydropyridin-3-yl)methyl)-1-isopropyl-1H-indazole-4-carboxamide], the GI50 in experiment [1] was determined as 2.3 µM; in experiment [3] it was 1.2 µM.

As to `Cc1cc(C)c(CNC(=O)c2cc(-c3ccc(N4CCN(CCNC(=O)CC56CC7CC(C)(CC(C)(C7)C5)C6)CC4)nc3)cc3c2cnn3C(C)C)c(=O)[nH]1` [AM29-21A, N-((4,6-dimethyl-2-oxo-1,2-dihydropyridin-3-yl)methyl)-6-(6-(4-(2-(2-((1r,3R,5S,7r)-3,5-dimethyladamantan-1-yl)acetamido)ethyl)piperazin-1-yl)pyridin-3-yl)-1-isopropyl-1H-indazole-4-carboxamide], the GI50 was found to be 0.28 µM in experiment [1] and 0.2 µM in experiment [2].

Regarding `Cc1cc(C)c(CNC(=O)c2cc(-c3ccc(N4CCN(CCNC(=O)C56CC7CC(C)(CC(C)(C7)C5)C6)CC4)nc3)cc3c2cnn3C(C)C)c(=O)[nH]1` [AM29-22A, N-((4,6-dimethyl-2-oxo-1,2-dihydropyridin-3-yl)methyl)-6-(6-(4-(2-((1R,3S)-3,5-dimethyladamantane-1-carboxamido)ethyl)piperazin-1-yl)pyridin-3-yl)-1-isopropyl-1H-indazole-4-carboxamide], the GI50 in experiment [1] came to 0.69 µM; in experiment [2] it was 0.87 µM.

Turning to `Cc1cc(C)c(CNC(=O)c2cc(-c3ccc(N4CCN(CCC(=O)NCC56CC7CC(CC(C7)C5)C6)CC4)nc3)cc3c2cnn3C(C)C)c(=O)[nH]1` [AM29-33A, 6-(6-(4-(3-((((3r,5r,7r)-adamantan-1-yl)methyl)amino)-3-oxopropyl)piperazin-1-yl)pyridin-3-yl)-N-((4,6-dimethyl-2-oxo-1,2-dihydropyridin-3-yl)methyl)-1-isopropyl-1H-indazole-4-carboxamide], the 50% growth inhibitory concentration (GI50) worked out at 0.7 µM in experiment [1] and 0.71 µM in experiment [2].

Regarding `Cc1cc(C)c(CNC(=O)c2cc(-c3ccc(N4CCN(CCNC(=O)CC5C6CC7CC(C6)CC5C7)CC4)nc3)cc3c2cnn3C(C)C)c(=O)[nH]1` (stereo not drawn) [AM29-182A, 6-(6-(4-(2-(2-((1r,3r,5r,7r)-adamantan-2-yl)acetamido)ethyl)piperazin-1-yl)pyridin-3-yl)-N-((4,6-dimethyl-2-oxo-1,2-dihydropyridin-3-yl)methyl)-1-isopropyl-1H-indazole-4-carboxamide], the GI50 in experiment [2] was 1.8 µM; in experiment [5], 2.5 µM; in experiment [6], 3.9 µM.

Take `Cc1cc(C)c(CNC(=O)c2cc(-c3ccc(N4CCN(CCNC(=O)CC56CC7CC(CC(C7)C5)C6)CC4)nc3)cc3c2cnn3C(C)C)c(=O)[nH]1` [XY019-43, 6-(6-(4-(2-(2-((3r,5r,7r)-adamantan-1-yl)acetamido)ethyl)piperazin-1-yl)pyridin-3-yl)-N-((4,6-dimethyl-2-oxo-1,2-dihydropyridin-3-yl)methyl)-1-isopropyl-1H-indazole-4-carboxamide]: the GI50 came to 0.35 µM in experiment [1]; 0.54 µM in experiment [2]; 0.65 µM in experiment [3]; 2.2 µM in experiment [5]; 2.7 µM in experiment [6].
